Experimental data: paper PMC4407307 (Journal of Biomedical Science, 2015)

Target: SHV-128 (Enterobacter cloacae, UniProt D5LIR5)
Experiment: biochemical

Sequence of SHV-128 (D5LIR5 entry or part of it): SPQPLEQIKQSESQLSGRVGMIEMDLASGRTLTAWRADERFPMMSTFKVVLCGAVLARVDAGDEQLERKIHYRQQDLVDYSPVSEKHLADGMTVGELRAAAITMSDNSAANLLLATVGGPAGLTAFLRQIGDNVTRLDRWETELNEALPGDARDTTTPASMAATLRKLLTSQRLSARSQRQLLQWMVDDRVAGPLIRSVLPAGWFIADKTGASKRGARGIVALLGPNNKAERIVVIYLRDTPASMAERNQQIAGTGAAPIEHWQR

O=C(O)[C@H]1/C(=C/CO)O[C@@H]2CC(=O)N21 [clavulanic acid]
IC50: 4.2 µM
